Data reported in article PMC5120274, “Characterization of the Annonaceous acetogenin, annonacinone, a natural product inhibitor of plasminogen activator inhibitor-1” (Scientific Reports, 2016).
Values joined by “and” are separate entries in the source; they are usually repeats but may differ in a detail not shown here. Equal entries are not always repeated. Where two headings read alike, the source gives them in different places.

Legend:
PAI-1 [1] = biological target: T1, PAI-1 (Homo sapiens, UniProt P05121); experiment: chromogenic screening assay: rate of tPA inhibition by PAI-1 (spectrozyme tPA hydrolysis); assay type: biochemical; details: for kapp 50 μM (apparent rate constant of tPA inhibition by PAI-1): compound 50 μM, 1% DMSO, PAI-1 20 nM, tPA 10 nM, DMSO 1% control 4.4 ± 0.3 × 10^-3
T1 construct: purchased Stago BNL (Asnières sur Seine, FR)
Protocol: Compounds from our local collection BioCIS and from the Prestwick compound library (Prestwick chemicals, Illkirch, FR), a collection containing only FDA approved drugs (around 4000 compounds in total) were tested in a chromogenic assay measuring the inhibition rate of tPA-catalyzed spectrozyme® tPA hydrolysis in the presence of PAI-1. Compounds (20 μL, final concentration 50 μM, 1% DMSO) were dispensed in a 96 well half area Greiner plate. A mixture containing 20 μL of PAI-1 (final concentration 20 nM) and 80 μL of Spectrozyme-tPA (final concentration 400 μM) was then added, and the mixture pre-incubated for 45 minutes at 37 °C. At the end of pre-incubation time, 90 μL of the mixture were added to another 96 well half area plate containing 10 μL tPA (final concentration 10 nM). The kinetic was then measured at 405 nm for 45 min at 37 °C in an Envision microplate reader. Progress curves were fitted using the pseudo first order equation to determine the apparent rate constant k.

vitronectin-bound PAI-1 = details: cited from earlier work
PAI-1 [2] = biological target: T1, PAI-1; experiment: thromboelastography (TEG) on pooled human plasma with tPA and PAI-1; assay type: biochemical; details: compound 50 μM, tPA 9 nM + PAI-1 22 nM
Protocol: 20 μL of CaCl2 (0.2 M), 10 μL of PAI-1 (final concentration 22 nM) and 10 μL of tested compounds were added in a TEG cup and pre-incubated for 20 min at room temperature. On the other hand, 1 mL of pooled citrated normal human plasma (pool of at least 10 healthy donors) was added to a vial containing 20 μL of Kaolin. 680 μl of the plasma/Kaolin mixture were then added to 20 μL of tPA (final concentration 9 nM). At the end of pre-incubation time, 320 μL of the plasma/tPA/kaolin mixture were transferred into the TEG cup and the thromboelastogram measured.

[3] = chromogenic screening assay, without vitronectin, mean ± SEM, n = 3, read-out: IC50

T1 sequence (P05121 24-402): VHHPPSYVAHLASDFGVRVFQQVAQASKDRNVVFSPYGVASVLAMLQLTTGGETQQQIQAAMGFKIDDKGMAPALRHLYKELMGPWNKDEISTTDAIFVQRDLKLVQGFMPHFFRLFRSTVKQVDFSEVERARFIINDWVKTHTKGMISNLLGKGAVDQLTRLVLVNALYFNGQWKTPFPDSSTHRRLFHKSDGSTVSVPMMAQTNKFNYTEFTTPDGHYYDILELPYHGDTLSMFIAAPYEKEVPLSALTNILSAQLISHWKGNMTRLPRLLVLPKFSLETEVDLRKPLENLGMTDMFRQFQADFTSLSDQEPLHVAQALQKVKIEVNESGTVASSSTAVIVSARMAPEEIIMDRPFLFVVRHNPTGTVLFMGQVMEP

SMILES | IC50 (PAI-1 [1]) [µM] | kapp 50 μM (apparent rate constant of tPA inhibition by PAI-1) (PAI-1 [1]; mean ± SEM, n = 3) | IC50 (PAI-1 [1]; [3]) [µM] | activity against PAI-1 bound to vitronectin (vitronectin-bound PAI-1) | other results
CCCCCCCCCCCC[C@@H](O)[C@H]1CC[C@H]([C@H](O)CCCC[C@H](O)CCCCC[C@@H](O)CC2=CC(C)OC2=O)O1 (stereo partly shown) [Annonacine] | 6 ± 3 | 6.4 ± 0.4 × 10^-4 s^-1 |  |  | 
CCCCCCCCCCCC[C@@H](O)[C@H]1CC[C@H]([C@H](O)CCCC[C@H](O)CCCCCC2CC(CC(C)=O)C(=O)O2)O1 (stereo partly shown) [Isoannonacine] | > 50 | 1.1 ± 0.1 × 10^-3 s^-1 |  |  | 
CCCCCCCCCC[C@H](O)[C@H]1CC[C@H]([C@H]2CC[C@H]([C@H](O)CCCCCCCCCCC3CC(CC(C)=O)C(=O)O3)O2)O1 (stereo partly shown) [Isorolliniastatin-2] |  | 8.5 ± 0.6 × 10^-4 s^-1 | 10 ± 2 |  | 
CCCCCc1c(-c2ccc3cc(OCc4nnn[nH]4)ccc3c2)n(Cc2ccccc2)c2ccccc12 [PAI-749] |  |  |  | devoid of activity | 
CCCCCCCCCC[C@H](O)[C@H]1CC[C@H]([C@H]2CC[C@H]([C@H](O)CCCCCCCCCCC(O)CC3=C[C@H](C)OC3=O)O2)O1 (stereo partly shown) [Rolliniastatin-2] |  | 7.5 ± 0.5 × 10^-4 s^-1 | 19 ± 1 |  | 
O=C(O)C(=O)c1cn(Cc2ccccc2)c2ccc(-c3ccc(OC(F)(F)F)cc3)cc12 [Tiplaxtinin, reference compound] |  | 1.7 ± 0.3 × 10^-3 s^-1 |  | devoid of activity | activity against vitronectin-bound PAI-1 (vitronectin-bound PAI-1): inactive; Angle (PAI-1 [2]): 66.2 °; K (clot formation time) (PAI-1 [2]): 1.8 min; MA (maximal amplitude) (PAI-1 [2]): 24.5 mm; R (clotting time) (PAI-1 [2]): 7 min; LY30 (clot lysis 30 minutes after maximal amplitude) (PAI-1 [2]; tPA alone 94.3%, tPA + PAI-1 0%): 21.9%; LY60 (clot lysis 60 minutes after maximal amplitude) (PAI-1 [2]; tPA alone 96.8%, tPA + PAI-1 0%): 50% and 50.2%; kapp 50 μM (apparent rate constant of tPA inhibition by PAI-1) (PAI-1 [1]; mean ± SEM, n = 3, listed as tiplaxtinin): 1.7 ± 0.3 × 10^−3 s^-1
